Laboratory results: patent US20040022788A1, “Compositions and methods for promoting or inhibiting angiogenesis” (priority 1998, published 2004)
“Also recorded” adds a separate entry of the source.

How the values were obtained:
[1] = test system: HUVEC; test: HUVEC cell proliferation assay (CyQUANT); format: cell-based, human
Experimental: Cell Proliferation Assay. HUVEC were plated at a density of 5000 cells/well in media depleted of fetal calf serum (FCS) overnight to allow the cells to become quiescent. Fresh media containing 5% FCS, 10 ng/ml basic fibroblast growth factor (bFGF) and 3 ng/ml vascular endothelial growth factor (VEGF) were added to the wells along with angiostatin (1.0 μM), antibody directed against the recombinant human alpha-subunit of ATP synthase (1:10 dil), antibody directed against the recombinant human beta-subunit of ATP synthase (1:10 dil), pre-immune serum (1:10 dil) or cycloheximide ([…]). Cell density was measured after 24 hrs using CyQUANT Cell Proliferation Assay Kit (Molecular Probes) in a fluorometric plate reader (Molecular Devices). The absorbance values used to calculate the percent proliferation of the cells ranged from 1.24 or 1.00 for treated and 2.57 for untreated.

[2] = target: T1, ATP synthase on the surface of HUVEC (Homo sapiens, UniProt P05496+P06576+P25705); test: Cell-surface ATP generation by bioluminescent luciferase assay; format: cell-based; details: oligomycin (0.1 mg/mL per method), 50 μM ADP
T1 construct: endogenous in cells; host or cells: HUVEC (primary human umbilical vein endothelial cells)
Experimental: Cell-surface ATP Assay. […] Cells were treated with (1 μM) angiostatin or (0.1 mg/mL) oligomycin for 1 hr at 37° C. All cells were then incubated with 0.1 Ci ^32P and 0.1 Ci ([…]) [2,8-^3H]-ADP (NEN Life Sciences) for 1 min. Supernatants were removed and centrifuged before assaying for ATP production by thin layer chromatography (TLC) or by firefly luciferase assay. ATP Generation by Bioluminescent Luciferase Assay. […] Louis, Mo.). In this firefly luciferin-luciferase reaction, only ATP is readily detected since the enzymatic reaction of firefly luciferase to oxidize luciferin is specific for ATP relative to all other nucleotides. Samples were injected with the ATP assay mixture and recordings were made in a LuminoskanRS (LabSystems, Franklin, Mass.) over a 10 s period. The response in a given sample or standard was quantified as area under the peak of the response and averaged for duplicate determinations. Data are expressed as picomoles of ATP produced per cell based on standards determined under the same conditions with each experiment. Angiostatin was prepared as described in Sottrup-Jensen, […]., Petersen, T. E. & Magnusson, S. (1978) Progress in Chemical Fibrinolysis and Thrombolysis (Raven Press, New York).

[3] = test system: angiostatin binding site on HUVEC; test: Competition binding assay, 125I-labeled angiostatin on HUVEC; set-up: species or system human
Experimental: FIG. 6. Competition binding assay between angiostatin and the antibody against the alpha subunit of ATP synthase from E. coli. […] Cells were washed and remaining bound radioactivity was quantified by γ-counting. Non-specific binding was measured in the presence of excess unlabeled angiostatin and was subtracted from total binding. […] Competition studies were also performed simultaneously using rabbit pre-immune serum to account for non-specific inhibition. Error bars represent standard deviation. A 1 tailed homoscedastic t test was used for statistical analysis; p<0.10.
Binding Assays. Ligands were radioiodinated by using Iodobeads (Pierce), repurified on L-lysine-Sepharose, eluted with 100 mM ε-aminocaproic acid, and dialyzed in PBS, pH 7.0 before use in binding assays. […] Nonspecific binding was measured in the presence of excess unlabeled ligand.

[4] = test system: HUVEC; test: Direct binding of 125I-labeled plasminogen or angiostatin to endothelial cells, Scatchard analysis; set-up: species or system human; details: 125I-labeled ligand, 1 h at 4° C., read-out: apparent dissociation constant (Kd)
Experimental: FIGS. 1A and 1B. Direct binding assay and Scatchard analysis of plasminogen and angiostatin with endothelial cells. HUVEC were plated at a density of 10,000 cells/well and incubated with increasing concentrations of ^125I-labeled-plasminogen or angiostatin. FIG. 1A. ^125I-labeled plasminogen binding was concentration-dependent and saturable with an apparent dissociation constant ([…]) of 158 nM and 870,000 sites/cell. FIG. 1B. […] Error bars represent standard deviation.
(§1) Binding Assays. Ligands were radioiodinated by using Iodobeads (Pierce), repurified on L-lysine-Sepharose, eluted with 100 mM ε-aminocaproic acid, and dialyzed in PBS, pH 7.0 before use in binding assays. HUVEC were plated at a density of 5,000 or 10,000 cells/well and incubated with increasing concentrations of ^125I-labeled ligand in media containing 1% BSA for 1 h at 4° C. in 96-well plates. Wells were washed, and remaining bound radioactivity was quantified by using an LKB 1272 γ-radiation counter. Nonspecific binding was measured in the presence of excess unlabeled ligand.

[5] = test system: plasminogen binding sites on HUVEC; test: Competition binding assay, 125I-labeled plasminogen on HUVEC; set-up: species or system human; details: 1.0 μM 125I-labeled plasminogen; 25-fold molar excess of unlabeled plasminogen
Experimental: FIG. 2. Competition binding assay between plasminogen and angiostatin. HUVEC were plated at a density of 10,000 cells/well and incubated with 1.0 μM ^125I-labeled plasminogen in the presence of 100-fold molar excess of unlabeled angiostatin for 1 h at 4° C. Cells were washed and the remaining radioactivity was quantified by γ-counting.
as §1

[6] = target: T2, recombinant alpha subunit of human ATP synthase (Homo sapiens, UniProt P25705); test: Ligand blot binding to the recombinant alpha subunit of ATP synthase
T2 construct: His tag; made in house; host or cells: E. coli BL21DE3
Experimental: FIGS. 7A-7E. Angiostatin binding to the recombinant alpha subunit of human ATP synthase. The alpha subunit of human ATP synthase was cloned and expressed in E. coli and purified using Qiagen's nickel-Sepharose protein purification system before dialyzing in phosphate buffered saline (PBS), pH 7.0. Recombinant protein was electrophoresed on 5-15% SDS-PAGE, electroblotted onto Immobilon™ membrane and incubated 18 h in 10 mM Tris-HCl, 0.15M NaCl, 0.05% NP40, pH 7.5 (TSN) containing ^125I-angiostatin. For competition studies, unlabeled ligand was added 4 h prior to radiolabeled ligand. Blots were washed in TSN buffer containing 0.05% Tween80 and bound radioactivity was quantified on a Molecular Dynamics PhosphorImager™.
Purification of the alpha-Subunit of ATP Synthase. Competent E. coli BL21DE3 were transformed with the pET24a(+) vector containing the alpha subunit, plated on 2× Bacto-yeast tryptone (YT) agarose, and grown overnight at 37° C. Twenty milliliters of 2× YT containing […] kanamycin was inoculated with one colony and grown overnight at 37° C. (200 rpm). A 1-liter culture (2× YT, […] kanamycin) was inoculated with 20 ml of the noninduced overnight culture and grown at 37° C. to an OD of 0.6 at a wavelength of 600 nm. Isopropyl […] was added to a final concentration of 1 mM and grown for an additional 3 h. Cells were harvested by centrifugation at 8,000 rpm for 10 min and stored overnight at −20° C. Lysates were prepared under denaturing conditions and batch-purified by using Qiagen Ni-NTA agarose. Resulting protein was dialyzed against PBS, pH 7.0 for use in all experiments.

[7] = target: T3, purified bovine F1 ATP synthase (Bos taurus, UniProt P00829+P19483); test: F1 activity assay (ATPase, coupled NADH oxidation at 340 nm); format: biochemical; details: NaN3 2%
T3 construct: from tissue; host or cells: bovine heart mitochondria
Experimental: FIG. 12 is a bar graph showing the inhibition of purified F1 ATP synthase by angiostatin. Purified F1 ATP synthase activity was measured spectrophotometrically at λ=340 nm by coupling the production of ADP to the oxidation of NADH via the pyruvate kinase and lactate dehydrogenase reaction in which a decrease in the absorbance at λ=340 nm indicates active protein (dark six membered rings). […] Control antibodies had no effect on activity (light circles and squares). Representative data shown, n=3.
Purification of Bovine Heart F1 ATP Synthase and F1 Activity Assay. Fresh bovine heart mitochondria were obtained as previously described (23) and sonicated to yield sub-mitochondrial particles (24). The F1 portion was separated from membrane-bound FO by chloroform extraction. The aqueous layer was centrifuged at 105,000×g to remove particulate matter before purifying over an S300 gel filtration column. […] ATPase activity was measured spectrophotometrically by monitoring at λ=340 nm by coupling the production of ADP to the oxidation of NADH via pyruvate kinase and lactate dehydrogenase reactions as described in Zheng,& Ramirez, Biochem Biophys Res Commun 261(25):499-503 (1999).

## C[C@@H]1C[C@@H]([C@H](O)CC2CC(=O)NC(=O)C2)C(=O)[C@@H](C)C1 [Cycloheximide]
[1]; Homo sapiens, HUVEC, 24 h, read-out: Percent Inhibition (+/− S.E.M.) of HUVEC proliferation
  inhibition at 10 µg/mL: 100%
[1]; compared with untreated cells, data not shown
  cellular morphology of treated cells: obvious rounded morphology

## CC[C@H]1/C=C/C=C/C[C@@H](C)[C@H](O)[C@@](C)(O)C(=O)[C@@H](C)[C@H](O)[C@@H](C)C(=O)[C@@H](C)[C@H](O)[C@@H](C)/C=C/C(=O)O[C@@H]2[C@H](C)[C@H](CC1)O[C@]1(CC[C@H](C)[C@H](C[C@@H](C)O)O1)[C@H]2C [Oligomycin, reference compound]
[2]; HUVEC, read-out: Percent Inhibition (+/− S.E.M.) of ATP generation
  inhibition at 100 µg/mL: 84%
[2]
  Percent Inhibition (+/− S.E.M.) of ATP generation: 83.5 +/− 4.5%

## NCCCCCC(=O)O [ε-aminocaproic acid, reference compound]
[3]; 100 mM ε-aminocaproic acid, data not shown
  inhibition of 125I-labeled angiostatin binding: only slightly inhibited

## plasminogen: purified from human plasma by affinity chromatography, 92 kDa
[4]
  Kd: 158 nM
[5]
  inhibition of 125I-labeled plasminogen binding: about 80%
[3]; excess unlabeled plasminogen (2-fold molar excess in FIG. 2 legend)
  inhibition of 125I-labeled angiostatin binding: little or no effect; also recorded: no inhibition
[6]; 0.5 nM 125I-labeled angiostatin, 2500-fold molar excess of unlabeled plasminogen
  inhibition of 125I-labeled angiostatin binding to recombinant alpha subunit: not inhibited
[6]; ligand blot
  binding of 125I-labeled ligand to recombinant alpha subunit: did not bind

## [N-]=[N+]=[N-].[Na+] [NaN3, reference compound]
[7]
  inhibition of purified F1 ATPase activity: completely inhibited
